Measured values published in the supplement of paper PMC10307832.

How the values were obtained:
Test in all cases: relative viability (nuclei count vs DMSO), 5 days (fraction); higher = more cells survive
Linifanib + Bortezomib = compound: Cc1ccc(F)c(NC(=O)Nc2ccc(-c3cccc4[nH]nc(N)c34)cc2)c1 [Linifanib] + CC(C)C[C@H](NC(=O)[C@H](Cc1ccccc1)NC(=O)c1cnccn1)B(O)O [Bortezomib] (partner 0.002 µM)
In short: (§1)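 Nuclei were stained with Hoechst during a one-step fixation (final 0.05% Triton X-100, 1% formaldehyde, 1 ug/ml Hoechst) carried out 5 days after dosing, then counted on 4× images. The cells, lung cancer lines in 1536-well plates, had been dosed by pin tool the day after seeding with one drug alone or a fixed anchor-drug dose plus five library-drug doses (not always all listed) in √10 steps. Relative viability is the nuclei count in treated wells divided by that in vehicle wells, and each value is the median of duplicate plates.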

Linifanib + OSI-027 = compound: Cc1ccc(F)c(NC(=O)Nc2ccc(-c3cccc4[nH]nc(N)c34)cc2)c1 [Linifanib] + COc1cccc2cc(-c3nc([C@H]4CC[C@H](C(=O)O)CC4)n4ncnc(N)c34)[nH]c12 [OSI-027] (partner 0.5 µM)
In short: as §1

Linifanib + Tozasertib = compound: Cc1ccc(F)c(NC(=O)Nc2ccc(-c3cccc4[nH]nc(N)c34)cc2)c1 [Linifanib] + Cc1cc(Nc2cc(N3CCN(C)CC3)nc(Sc3ccc(NC(=O)C4CC4)cc3)n2)n[nH]1 [Tozasertib] (partner 0.1 µM)
In short: as §1

Linifanib + Foretinib = compound: Cc1ccc(F)c(NC(=O)Nc2ccc(-c3cccc4[nH]nc(N)c34)cc2)c1 [Linifanib] + COc1cc2c(Oc3ccc(NC(=O)C4(C(=O)Nc5ccc(F)cc5)CC4)cc3F)ccnc2cc1OCCCN1CCOCC1 [Foretinib] (partner 0.25 µM)
In short: as §1

Linifanib + Pemetrexed = compound: Cc1ccc(F)c(NC(=O)Nc2ccc(-c3cccc4[nH]nc(N)c34)cc2)c1 [Linifanib] + Nc1nc2[nH]cc(CCc3ccc(C(=O)N[C@@H](CCC(=O)O)C(=O)O)cc3)c2c(=O)[nH]1 [Pemetrexed] (partner 0.2 µM)
In short: as §1

Linifanib + Decitabine = compound: Cc1ccc(F)c(NC(=O)Nc2ccc(-c3cccc4[nH]nc(N)c34)cc2)c1 [Linifanib] + Nc1ncn([C@H]2C[C@H](O)[C@@H](CO)O2)c(=O)n1 [Decitabine] (partner 2 µM)
In short: as §1

Row | Cell Line | relative viability (Linifanib + Bortezomib; first compound 0.03162 µM) | relative viability (Linifanib + Bortezomib; first compound 0.1 µM) | relative viability (Linifanib + Bortezomib; first compound 0.3162 µM) | relative viability (Linifanib + OSI-027; first compound 0.03162 µM) | relative viability (Linifanib + OSI-027; first compound 0.1 µM) | relative viability (Linifanib + OSI-027; first compound 0.3162 µM) | relative viability (Linifanib + Tozasertib; first compound 0.03162 µM) | relative viability (Linifanib + Tozasertib; first compound 0.1 µM) | relative viability (Linifanib + Tozasertib; first compound 0.3162 µM) | relative viability (Linifanib + Foretinib; first compound 0.03162 µM) | relative viability (Linifanib + Foretinib; first compound 0.1 µM) | relative viability (Linifanib + Foretinib; first compound 0.3162 µM) | relative viability (Linifanib + Pemetrexed; first compound 0.03162 µM) | relative viability (Linifanib + Pemetrexed; first compound 0.1 µM) | relative viability (Linifanib + Pemetrexed; first compound 0.3162 µM) | relative viability (Linifanib + Decitabine; first compound 0.03162 µM) | relative viability (Linifanib + Decitabine; first compound 0.1 µM) | relative viability (Linifanib + Decitabine; first compound 0.3162 µM)
1 | HARA | 1.14 | 1.11 | 1.06 | 0.569 | 0.571 | 0.498 | 0.094 | 0.117 | 0.0893 | 1.09 | 1.06 | 0.835 | 0.258 | 0.261 | 0.306 | 0.599 | 0.61 | 0.61
2 | HOP-62 | 0.617 | 0.969 | 0.728 | 0.982 | 0.874 | 0.767 | 0.36 | 0.401 | 0.35 | 1.14 | 1.12 | 1.02 | 0.312 | 0.261 | 0.295 | 0.194 | 0.197 | 0.2
3 | PC-3 [JPC-3] | 0.728 | 0.805 | 0.77 | 0.702 | 0.771 | 0.659 | 0.893 | 0.979 | 0.811 | 1.05 | 0.973 | 0.993 | 1.03 | 1.05 | 0.94 | 0.766 | 0.792 | 0.847
4 | NCI-H460 | 1.03 | 1.18 | 0.925 | 0.682 | 0.768 | 0.611 | 0.139 | 0.436 | 0.475 | 0.963 | 1.01 | 0.95 | 0.0619 | 0.0626 | 0.0566 | 0.492 | 0.583 | 0.475
5 | NCI-H1650 | 0.216 | 0.212 | 0.199 | 0.752 | 0.78 | 0.585 | 0.389 | 0.475 | 0.377 | 0.966 | 1.33 | 1.07 | 0.364 | 0.346 | 0.348 | 0.482 | 0.407 | 0.37
6 | ChaGo-K-1 | 0.946 | 1.18 | 0.926 | 0.584 | 0.602 | 0.673 | 0.239 | 0.245 | 0.228 | 1.09 | 0.935 | 0.951 | 0.255 | 0.262 | 0.238 | 0.497 | 0.531 | 0.509
7 | NCI-H23 | 1.03 | 1.2 | 1.16 | 0.577 | 0.75 | 0.572 | 0.366 | 0.39 | 0.329 | 1.28 | 0.964 | 1.15 | 0.66 | 0.882 | 0.761 | 0.355 | 0.308 | 0.343
8 | 201T | 1.05 | 1.09 | 1.08 | 0.671 | 0.86 | 0.745 | 0.971 | 0.965 | 0.942 | 0.968 | 1.22 | 1.1 | 0.317 | 0.309 | 0.317 | 0.867 | 0.862 | 0.891
